{"source": "paper PMC10732257", "about": "(Oncotarget, 2023)", "key": {"[1]": {"target": "CDK9/cyclin T1(h) (Homo sapiens, UniProt P50750)", "settings": "read-out: IC50 of inhibition of the CDK9/Cyclin T1 complex; radiometric kinase activity", "description": "Figure 2 Effect of GFH009 on CDK9 enzymatic activity. IC50 of GFH009 inhibition activity against the CDK9/cyclin T1 complex was determined with Eurofin KinaseProfiler radiometric protein kinase activity.\nGFH009 inhibition activity against the CDK9/cyclin T1 complex as well as off-target CDK family reactivity were assayed by Eurofins Pharma Discovery Services UK Ltd., (Dundee, UK). Determination of off-target inhibition of other kinases was conducted by DiscoverX LeadHunter Discovery Services (Freemont, CA, USA.) GFH009 reactivity to GPCR family members was assayed by Wuxi AppTech (Shanghai, China)."}, "[2]": {"test_system": "MV-4-11 cells", "assay": "Western blot of CDK9-regulated signaling in cultured cells", "type": "cell-based, human", "settings": "4-hour incubation", "description": "Figure 4 Effect of GFH009 on CDK9-dependent gene expression in cells. Western blot of MV-4-11 cells after exposure to different concentrations of GFH009 or Enitociclib for 4 hours was analyzed. A representative blot was shown from 3 independent experiments.\nThe effect of GFH009 on CDK9-regulated signaling pathways in human hematological malignancy cell lines was assessed via western blot. Cultured MV-4-11 cells, derived from human blastic AML cells (ATCC), were incubated at 37°C and 5% CO2 for 4 hours at final concentrations of 1 μM, 0.3 μM, 0.1 μM, 0.03 μM, and 0.01 μM for both GFH009 and enitociclib. Protein isolates were collected from pelleted cells as previously described, semi-quantified via western blot and analyzed using Image Studio 5.0 (LI-COR Biosciences, Lincoln, NE, USA)."}, "[3]": {"assay": "Body weight change in MV-4-11 xenograft mice", "type": "in vivo, female BALB/c nude mice", "settings": "all GFH009 treatment groups; through Day 28", "description": "Figure 7 Effect of GFH009 on body weight change in MV-4-11 xenografts. Body weight change of MV-4-11 xenograft (Figure 6) are expressed as mean ± SEM. ^* […], ^** P < 0.01, ^**** P < 0.0001, two-way ANOVA with Dunnett’s multiple comparisons test analysis compared to the vehicle-treated (control) group.\nAnimals dosed BIW were given treatments on 2 consecutive days. Weights were recorded for each mouse every day and tumor volumes assessed 3 times a week. Total treatment administration occurred across 3 consecutive weeks.\nRelative change in body weight (RCBW) was determined as RCBW (%) = (Bwi – BW0)/BW0 × 100, where Bwi is body weight of a given mouse on a given day, and BW0 is initial body weight on the day they were assigned to a treatment group."}, "[4]": {"test_system": "AD2 (adenosine)", "assay": "GPCR competitive antagonist (off-target inhibitory action) testing", "type": "cell-based", "text": "(§1) Supplementary Table 3: Results of off-target inhibitory action testing of GFH009 administered at\n(§2) Competitive antagonist activity against GPCR type shown below"}, "[5]": {"target": "T1, a2a (adrenoceptor) (Homo sapiens, UniProt P08913)", "T1 construct": "Wuxi AppTech (contract laboratory)", "assay": "GPCR competitive antagonist (off-target inhibitory action) testing", "type": "cell-based", "text": "as §1, §2"}, "[6]": {"target": "T2, 5-HT1A (serotonin) (Homo sapiens, UniProt P08908)", "T2 construct": "Wuxi AppTech (Shanghai, China)", "assay": "GPCR competitive antagonist (off-target inhibitory action) testing", "type": "cell-based", "text": "as §1, §2"}, "[7]": {"target": "op-d (opioid) (Homo sapiens, UniProt P41143)", "assay": "GPCR competitive antagonist (off-target inhibitory action) testing", "type": "cell-based", "text": "as §1, §2"}, "[8]": {"target": "T3, b1 (adrenoceptor) (Homo sapiens, UniProt P08588)", "T3 construct": "Wuxi AppTech (contract laboratory)", "assay": "GPCR competitive antagonist (off-target inhibitory action) testing", "type": "cell-based", "text": "as §1, §2"}, "[9]": {"target": "T4, CB2 (cannabinoid) (Homo sapiens, UniProt P34972)", "T4 construct": "Wuxi AppTech (contract laboratory)", "assay": "GPCR competitive antagonist (off-target inhibitory action) testing", "type": "cell-based", "text": "as §1, §2"}, "[10]": {"target": "V1A (vasopressin) (Homo sapiens, UniProt P37288)", "assay": "GPCR competitive antagonist (off-target inhibitory action) testing", "type": "cell-based", "text": "as §1, §2"}, "[11]": {"target": "op-k (opioid) (Homo sapiens, UniProt P41145)", "assay": "GPCR competitive antagonist (off-target inhibitory action) testing", "type": "cell-based", "text": "as §1, §2"}, "[12]": {"target": "T5, CCKa (Homo sapiens, UniProt P32238)", "T5 construct": "Wuxi AppTech (contract laboratory)", "assay": "GPCR competitive antagonist (off-target inhibitory action) testing", "type": "cell-based", "text": "as §1, §2"}, "[13]": {"target": "H2 (histamine) (Homo sapiens, UniProt P25021)", "assay": "GPCR competitive antagonist (off-target inhibitory action) testing", "type": "cell-based", "text": "as §1, §2"}, "[14]": {"target": "op-m (opioid) (Homo sapiens, UniProt P35372)", "assay": "GPCR competitive antagonist (off-target inhibitory action) testing", "type": "cell-based", "text": "as §1, §2"}, "[15]": {"target": "T6, b2 (adrenoceptor) (Homo sapiens, UniProt P07550)", "T6 construct": "Wuxi AppTech (contract laboratory)", "assay": "GPCR competitive antagonist (off-target inhibitory action) testing", "type": "cell-based", "text": "as §1, §2"}, "[16]": {"target": "T7, H1 (histamine) (Homo sapiens, UniProt P35367)", "T7 construct": "Wuxi AppTech (contract laboratory)", "assay": "GPCR competitive antagonist (off-target inhibitory action) testing", "type": "cell-based", "text": "as §1, §2"}, "[17]": {"target": "T8, 5-HT2B (serotonin) (Homo sapiens, UniProt P41595)", "T8 construct": "Wuxi AppTech (Shanghai, China)", "assay": "GPCR competitive antagonist (off-target inhibitory action) testing", "type": "cell-based", "text": "as §1, §2"}, "[18]": {"target": "T9, 5-HT1B (serotonin) (Homo sapiens, UniProt P28222)", "T9 construct": "Wuxi AppTech (Shanghai, China)", "assay": "GPCR competitive antagonist (off-target inhibitory action) testing", "type": "cell-based", "text": "as §1, §2"}, "[19]": {"target": "T10, D1 (dopamine) (Homo sapiens, UniProt P21728)", "T10 construct": "Wuxi AppTech (contract laboratory)", "assay": "GPCR competitive antagonist (off-target inhibitory action) testing", "type": "cell-based", "text": "as §1, §2"}, "[20]": {"target": "T11, ETA (endothelin) (Homo sapiens, UniProt P25101)", "T11 construct": "Wuxi AppTech (contract laboratory)", "assay": "GPCR competitive antagonist (off-target inhibitory action) testing", "type": "cell-based", "text": "as §1, §2"}, "[21]": {"target": "T12, D2 (dopamine) (Homo sapiens, UniProt P14416)", "T12 construct": "Wuxi AppTech (contract laboratory)", "assay": "GPCR competitive antagonist (off-target inhibitory action) testing", "type": "cell-based", "text": "as §1, §2"}, "[22]": {"target": "T13, 5-HT2A (serotonin) (Homo sapiens, UniProt P28223)", "T13 construct": "Wuxi AppTech (Shanghai, China)", "assay": "GPCR competitive antagonist (off-target inhibitory action) testing", "type": "cell-based", "text": "as §1, §2"}, "[23]": {"target": "T14, CB1 (cannabinoid) (Homo sapiens, UniProt P21554)", "T14 construct": "Wuxi AppTech (contract laboratory)", "assay": "GPCR competitive antagonist (off-target inhibitory action) testing", "type": "cell-based", "text": "as §1, §2"}, "[24]": {"target": "T15, a1a (adrenoceptor) (Homo sapiens, UniProt P35348)", "T15 construct": "Wuxi AppTech (contract laboratory)", "assay": "GPCR competitive antagonist (off-target inhibitory action) testing", "type": "cell-based", "text": "as §1, §2"}}, "data": [{"compound": "COC[C@@H](C)NC1CCC(Nc2cc(-c3csc(NCC4(C#N)CCOCC4)n3)c(Cl)cn2)CC1", "note": "(stereo partly drawn) [GFH009]", "values": [{"measurement": "IC50", "setting": "[1]", "result": 9, "unit": "nM"}, {"measurement": "Expression levels of MCL-1 and c-Myc", "setting": "[2]; 0.01-1 μM, western blot", "result": "dose-dependently decreased"}, {"measurement": "Expression level of phospho-Rpb1 CTD Ser2", "setting": "[2]; increasing concentration, western blot", "result": "gradually decreased"}, {"measurement": "Expression levels of phospho-Rpb1 CTD Ser5 and total Rpb1", "setting": "[2]; vs DMSO-only control", "result": "not significantly different"}, {"measurement": "Concentration inducing cleavage of caspase-3 and PARP", "setting": "[2]; western blot", "result": "greater than 0.1 μM"}, {"measurement": "Relative change in body mass (RCBW%) vs initial", "setting": "[3]", "result": "≤ 5", "unit": "%"}, {"measurement": "% Inhibitory Effect @ Max Dose (10 µM)", "setting": "[4]", "result": "−13.58", "unit": "%"}, {"measurement": "% Inhibitory Effect @ Max Dose (10 µM)", "setting": "[5]", "result": 5.16, "unit": "%"}, {"measurement": "% Inhibitory Effect @ Max Dose (10 µM)", "setting": "[6]", "result": 12.31, "unit": "%"}, {"measurement": "% Inhibitory Effect @ Max Dose (10 µM)", "setting": "[7]", "result": "−15.46", "unit": "%"}, {"measurement": "% Inhibitory Effect @ Max Dose (10 µM)", "setting": "[8]", "result": 30.48, "unit": "%"}, {"measurement": "% Inhibitory Effect @ Max Dose (10 µM)", "setting": "[9]", "result": "−8.86", "unit": "%"}, {"measurement": "% Inhibitory Effect @ Max Dose (10 µM)", "setting": "[10]", "result": "−1.57", "unit": "%"}, {"measurement": "% Inhibitory Effect @ Max Dose (10 µM)", "setting": "[11]", "result": 11.54, "unit": "%"}, {"measurement": "% Inhibitory Effect @ Max Dose (10 µM)", "setting": "[12]", "result": 16.26, "unit": "%"}, {"measurement": "% Inhibitory Effect @ Max Dose (10 µM)", "setting": "[13]", "result": "−18.49", "unit": "%"}, {"measurement": "% Inhibitory Effect @ Max Dose (10 µM)", "setting": "[14]", "result": 20.94, "unit": "%"}, {"measurement": "% Inhibitory Effect @ Max Dose (10 µM)", "setting": "[15]", "result": "−3.46", "unit": "%"}, {"measurement": "% Inhibitory Effect @ Max Dose (10 µM)", "setting": "[16]", "result": 12.37, "unit": "%"}, {"measurement": "% Inhibitory Effect @ Max Dose (10 µM)", "setting": "[17]", "result": "−24.98", "unit": "%"}, {"measurement": "% Inhibitory Effect @ Max Dose (10 µM)", "setting": "[18]", "result": 4.71, "unit": "%"}, {"measurement": "% Inhibitory Effect @ Max Dose (10 µM)", "setting": "[19]", "result": 1.10, "unit": "%"}, {"measurement": "% Inhibitory Effect @ Max Dose (10 µM)", "setting": "[20]", "result": "−0.32", "unit": "%"}, {"measurement": "% Inhibitory Effect @ Max Dose (10 µM)", "setting": "[21]", "result": 10.34, "unit": "%"}, {"measurement": "% Inhibitory Effect @ Max Dose (10 µM)", "setting": "[22]", "result": "−7.10", "unit": "%"}, {"measurement": "% Inhibitory Effect @ Max Dose (10 µM)", "setting": "[23]", "result": "−9.21", "unit": "%"}, {"measurement": "% Inhibitory Effect @ Max Dose (10 µM)", "setting": "[24]", "result": 68.39, "unit": "%"}]}]}
